Assay results from PMC11233931, “Remodeling tumor‐associated macrophage for anti‐cancer effects by rational design of irreversible inhibition of mitogen‐activated protein kinase‐activated protein kinase 2” (MedComm, 2024).

Columns and labels:
Test in all cases: Eurofins kinase selectivity profile against 380 other human recombinant kinases (Table S2)
Format in all cases: biochemical
[1] = target: T1, 380 human recombinant protein kinases (Homo sapiens, UniProt O15111); settings: IKKα(h), read-out: Inhibition rate
T1 construct: purchased Eurofins (Celle Lévescault)
T1 sequence (O15111 1-745): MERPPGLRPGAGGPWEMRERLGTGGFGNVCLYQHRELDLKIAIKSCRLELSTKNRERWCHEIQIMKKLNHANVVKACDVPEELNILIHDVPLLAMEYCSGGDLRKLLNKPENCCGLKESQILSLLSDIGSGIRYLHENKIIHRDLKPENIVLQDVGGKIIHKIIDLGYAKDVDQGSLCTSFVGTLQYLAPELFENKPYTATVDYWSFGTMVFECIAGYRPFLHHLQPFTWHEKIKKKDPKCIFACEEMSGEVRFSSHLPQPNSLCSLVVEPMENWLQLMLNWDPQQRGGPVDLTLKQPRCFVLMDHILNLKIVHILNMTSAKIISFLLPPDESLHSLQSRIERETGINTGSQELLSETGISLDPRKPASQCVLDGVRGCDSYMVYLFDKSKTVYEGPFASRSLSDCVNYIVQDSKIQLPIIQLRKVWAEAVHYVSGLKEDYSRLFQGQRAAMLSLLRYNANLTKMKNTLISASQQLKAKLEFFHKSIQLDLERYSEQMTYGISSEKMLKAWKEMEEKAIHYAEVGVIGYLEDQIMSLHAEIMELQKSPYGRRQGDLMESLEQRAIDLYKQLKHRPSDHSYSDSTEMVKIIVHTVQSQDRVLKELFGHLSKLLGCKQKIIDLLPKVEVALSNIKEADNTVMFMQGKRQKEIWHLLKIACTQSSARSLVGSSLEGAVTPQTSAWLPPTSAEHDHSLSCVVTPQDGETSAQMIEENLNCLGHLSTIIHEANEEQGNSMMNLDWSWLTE
Method in brief: (§1)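 Values come from a contract kinase-profiling service that tested the compound at multiple concentrations across 380 recombinant human kinases, as an off-target check against the MK2 activity.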

[2] = target: T2, 380 human recombinant protein kinases (Homo sapiens, UniProt O94768); settings: DRAK2(h), read-out: Inhibition rate
T2 construct: purchased Eurofins (Celle Lévescault)
T2 sequence (O94768 1-372): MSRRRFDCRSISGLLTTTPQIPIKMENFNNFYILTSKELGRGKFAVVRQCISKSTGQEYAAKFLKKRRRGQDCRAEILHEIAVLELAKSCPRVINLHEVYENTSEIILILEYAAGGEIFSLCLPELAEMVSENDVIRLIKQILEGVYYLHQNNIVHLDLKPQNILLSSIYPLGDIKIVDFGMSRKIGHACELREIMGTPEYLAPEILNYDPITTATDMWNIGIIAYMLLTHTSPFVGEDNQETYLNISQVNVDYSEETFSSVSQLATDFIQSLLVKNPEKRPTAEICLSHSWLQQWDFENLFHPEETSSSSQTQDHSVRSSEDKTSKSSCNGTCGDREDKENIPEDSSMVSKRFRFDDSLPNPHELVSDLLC
Method in brief: as §1

[3] = target: T3, 380 human recombinant protein kinases (Homo sapiens, UniProt P19525); settings: PKR(h), read-out: Inhibition rate
T3 construct: purchased Eurofins (Celle Lévescault)
Method in brief: as §1

[4] = target: T4, 380 human recombinant protein kinases (Homo sapiens, UniProt Q14680); settings: MELK(h), read-out: Inhibition rate
T4 construct: purchased Eurofins (Celle Lévescault)
Method in brief: as §1

[5] = target: T5, 380 human recombinant protein kinases (Homo sapiens, UniProt Q9UL54); settings: TAO2(h), read-out: Inhibition rate (%)
T5 construct: purchased Eurofins (Celle Lévescault)
T5 sequence (Q9UL54 1-1235): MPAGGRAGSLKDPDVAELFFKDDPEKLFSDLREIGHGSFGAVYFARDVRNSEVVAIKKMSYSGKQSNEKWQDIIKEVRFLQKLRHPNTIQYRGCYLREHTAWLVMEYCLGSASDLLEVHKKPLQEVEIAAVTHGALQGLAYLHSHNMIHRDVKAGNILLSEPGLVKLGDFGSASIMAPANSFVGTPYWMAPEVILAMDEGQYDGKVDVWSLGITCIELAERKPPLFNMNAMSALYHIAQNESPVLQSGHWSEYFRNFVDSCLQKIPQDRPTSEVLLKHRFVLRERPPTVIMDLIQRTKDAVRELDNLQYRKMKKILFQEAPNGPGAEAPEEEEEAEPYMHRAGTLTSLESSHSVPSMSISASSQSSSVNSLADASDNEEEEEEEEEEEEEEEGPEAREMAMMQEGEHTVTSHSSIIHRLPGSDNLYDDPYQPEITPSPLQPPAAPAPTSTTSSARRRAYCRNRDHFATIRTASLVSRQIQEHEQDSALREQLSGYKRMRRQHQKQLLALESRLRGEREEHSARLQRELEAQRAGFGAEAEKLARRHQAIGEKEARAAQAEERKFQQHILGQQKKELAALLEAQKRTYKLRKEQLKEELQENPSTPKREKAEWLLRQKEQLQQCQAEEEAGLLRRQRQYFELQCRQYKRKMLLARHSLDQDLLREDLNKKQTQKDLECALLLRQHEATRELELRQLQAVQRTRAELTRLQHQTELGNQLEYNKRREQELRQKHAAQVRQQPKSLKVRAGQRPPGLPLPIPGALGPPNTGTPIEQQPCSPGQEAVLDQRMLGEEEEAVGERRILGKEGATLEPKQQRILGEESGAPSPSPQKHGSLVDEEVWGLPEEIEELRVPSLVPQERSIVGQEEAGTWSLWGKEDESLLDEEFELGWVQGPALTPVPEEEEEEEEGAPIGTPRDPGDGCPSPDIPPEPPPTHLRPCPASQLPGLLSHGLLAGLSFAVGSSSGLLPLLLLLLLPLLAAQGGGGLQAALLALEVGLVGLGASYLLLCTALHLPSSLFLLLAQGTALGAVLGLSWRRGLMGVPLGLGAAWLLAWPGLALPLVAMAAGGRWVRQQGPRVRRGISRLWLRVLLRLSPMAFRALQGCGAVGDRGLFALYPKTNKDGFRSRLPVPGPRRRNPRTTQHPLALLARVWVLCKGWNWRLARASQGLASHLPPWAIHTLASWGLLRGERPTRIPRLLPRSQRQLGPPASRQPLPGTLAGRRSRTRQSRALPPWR
Method in brief: as §1

T4 sequence (Q14680 whole entry): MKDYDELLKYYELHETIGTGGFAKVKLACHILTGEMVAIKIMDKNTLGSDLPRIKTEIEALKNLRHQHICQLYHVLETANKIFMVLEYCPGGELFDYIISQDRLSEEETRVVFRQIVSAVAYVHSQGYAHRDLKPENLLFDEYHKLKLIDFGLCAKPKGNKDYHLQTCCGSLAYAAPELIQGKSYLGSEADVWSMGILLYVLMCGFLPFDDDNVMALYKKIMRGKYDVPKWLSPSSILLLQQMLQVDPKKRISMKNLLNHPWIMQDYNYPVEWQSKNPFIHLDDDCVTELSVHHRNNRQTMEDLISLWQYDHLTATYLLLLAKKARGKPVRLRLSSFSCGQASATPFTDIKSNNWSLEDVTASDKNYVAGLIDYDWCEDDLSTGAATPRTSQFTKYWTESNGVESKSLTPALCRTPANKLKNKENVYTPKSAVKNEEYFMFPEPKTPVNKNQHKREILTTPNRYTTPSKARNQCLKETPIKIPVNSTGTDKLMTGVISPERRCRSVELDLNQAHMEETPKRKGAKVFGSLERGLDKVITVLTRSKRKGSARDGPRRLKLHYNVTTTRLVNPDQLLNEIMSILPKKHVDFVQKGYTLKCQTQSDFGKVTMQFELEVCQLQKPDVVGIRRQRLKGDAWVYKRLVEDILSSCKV
T3 sequence (P19525 whole entry): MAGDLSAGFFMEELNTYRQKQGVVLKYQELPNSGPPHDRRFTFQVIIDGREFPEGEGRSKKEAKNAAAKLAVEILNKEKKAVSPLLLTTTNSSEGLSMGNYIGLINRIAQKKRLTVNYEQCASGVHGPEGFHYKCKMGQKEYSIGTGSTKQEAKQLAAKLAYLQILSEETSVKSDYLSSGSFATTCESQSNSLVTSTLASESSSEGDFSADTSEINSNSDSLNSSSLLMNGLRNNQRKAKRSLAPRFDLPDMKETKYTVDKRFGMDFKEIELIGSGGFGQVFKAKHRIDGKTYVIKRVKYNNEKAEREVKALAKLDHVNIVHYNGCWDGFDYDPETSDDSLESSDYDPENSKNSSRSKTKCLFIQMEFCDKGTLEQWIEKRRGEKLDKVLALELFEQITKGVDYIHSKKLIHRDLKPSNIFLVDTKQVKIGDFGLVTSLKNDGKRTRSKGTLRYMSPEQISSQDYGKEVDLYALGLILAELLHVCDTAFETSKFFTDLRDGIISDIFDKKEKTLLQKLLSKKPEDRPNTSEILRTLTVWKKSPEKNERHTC

C=CC(=O)Nc1cc(-c2cc(-c3cc4c([nH]3)CCNC4=O)ccn2)ccc1OC(F)(F)F [compound 11]
inhibition at 0.01 µM ([1]; 10 nM): -15%
inhibition at 0.1 µM ([1]; 100 nM): -14%
inhibition at 1 µM ([1]; 1000 nM): -5%
inhibition at 0.01 µM ([2]; 10 nM): 28%
inhibition at 0.1 µM ([2]; 100 nM): 80%
inhibition at 1 µM ([2]; 1000 nM): 93%
inhibition at 0.01 µM ([3]; 10 nM): 3%
inhibition at 0.1 µM ([3]; 100 nM): 3%
inhibition at 1 µM ([3]; 1000 nM): 9%
inhibition at 0.01 µM ([4]; 10 nM): -7%
inhibition at 0.1 µM ([4]; 100 nM): 5%
inhibition at 1 µM ([4]; 1000 nM): 30%
inhibition at 0.01 µM ([5]; 10 nM): -7%
inhibition at 0.1 µM ([5]; 100 nM): 1%
inhibition at 1 µM ([5]; 1000 nM): 0%
